Measured values published in article PMC10535624, “Curcuminoid Chalcones: Synthesis, Stability, and New Neuroprotective and Sonosensitising Activities” (Pharmaceuticals, 2023).
Where “and” joins values, the source holds several entries; their conditions need not be identical. Identical values can stand only once.

What was measured:
[1] = target: T1, COX-2 (Homo sapiens, UniProt P35354); experiment: Effect on COX-2 activity; format: biochemical; settings: samples 3 mM/dm^3 in DMSO, 0.02 mL; mean ± SEM, n = 3
T1 sequence (P35354 18-604): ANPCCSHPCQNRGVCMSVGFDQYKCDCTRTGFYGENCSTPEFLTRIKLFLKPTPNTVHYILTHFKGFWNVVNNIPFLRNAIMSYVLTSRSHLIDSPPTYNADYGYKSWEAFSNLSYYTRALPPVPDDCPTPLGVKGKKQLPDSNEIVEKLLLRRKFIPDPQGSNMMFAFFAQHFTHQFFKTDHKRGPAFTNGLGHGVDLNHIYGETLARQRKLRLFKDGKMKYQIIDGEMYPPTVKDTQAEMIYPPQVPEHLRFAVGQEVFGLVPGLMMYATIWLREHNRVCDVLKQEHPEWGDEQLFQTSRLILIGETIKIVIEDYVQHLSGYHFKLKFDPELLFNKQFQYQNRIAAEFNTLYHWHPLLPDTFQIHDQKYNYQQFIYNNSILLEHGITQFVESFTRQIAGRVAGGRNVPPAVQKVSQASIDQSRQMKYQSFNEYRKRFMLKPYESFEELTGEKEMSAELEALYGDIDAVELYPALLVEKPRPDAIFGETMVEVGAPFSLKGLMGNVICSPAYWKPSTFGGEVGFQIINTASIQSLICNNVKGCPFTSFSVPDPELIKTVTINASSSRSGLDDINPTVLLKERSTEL

[2] = test system: glutathione peroxidase (GPx); experiment: Effect on GPx activity; format: biochemical; settings: samples 3 mM/dm^3 in DMSO; mean ± SEM, n = 3
Description: (§1) We decided to extend the study by measuring the compounds’ ability to inhibit glutathione reductase (GR) and GPx activities, the human cells’ main endogenous enzymatic defence systems. Therefore, we checked the influence of some curcuminoid chalcones on GR and GPx using in vitro spectroscopic methods (Table 2). Moreover, the effects of curcuminoid chalcones on CAT activity were estimated (Table 2).
(§2) The samples were dissolved in DMSO (Sigma D4540) to obtain a concentration of 3 mM/dm^3.
(§3) The analyses were performed strictly as described by Studzińska-Sroka et al..

[3] = target: T2, glutathione reductase (GR) (Homo sapiens, UniProt P00390); experiment: Effect on GR activity; format: biochemical; settings: samples 3 mM/dm^3 in DMSO; mean ± SEM, n = 3
T2 sequence (P00390 44-522): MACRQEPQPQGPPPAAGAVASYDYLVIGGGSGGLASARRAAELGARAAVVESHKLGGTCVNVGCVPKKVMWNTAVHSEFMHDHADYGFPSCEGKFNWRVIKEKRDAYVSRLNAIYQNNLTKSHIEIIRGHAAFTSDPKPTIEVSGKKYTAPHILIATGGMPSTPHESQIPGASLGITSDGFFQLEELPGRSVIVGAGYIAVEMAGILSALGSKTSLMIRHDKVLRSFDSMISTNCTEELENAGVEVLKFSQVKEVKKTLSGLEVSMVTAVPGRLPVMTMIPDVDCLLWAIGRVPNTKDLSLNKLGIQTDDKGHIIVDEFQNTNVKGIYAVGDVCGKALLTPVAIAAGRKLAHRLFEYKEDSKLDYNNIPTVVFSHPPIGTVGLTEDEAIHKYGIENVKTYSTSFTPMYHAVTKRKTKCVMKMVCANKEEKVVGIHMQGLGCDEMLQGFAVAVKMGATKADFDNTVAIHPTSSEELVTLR
Description: as §1, §2, §3

[4] = target: AChE (Homo sapiens, UniProt P22303); experiment: Effect on AChE activity (modified Ellman's method); format: biochemical; settings: samples 3 mM/dm^3 in DMSO, 0.035 mL; mean ± SEM, n = 3
Description: Neurodegenerative diseases are associated with the progressive damage of neurons. During the development of these diseases, there is a loss of nerve cells and a deficiency of […], serotonin, and norepinephrine levels. The ability to inhibit acetyl- (AChE) and butyrylcholinesterase (BChE) activities is seen, among others, in organophosphorus compounds, carbamate insecticides, phenoxyacetic pesticides, and hydrogen peroxide, as well as aliphatic ketones with the carbons C4–C9, e.g., 2,5-hexandione. AChE and BChE show differences in their susceptibility to inhibitors, behaviour in situations involving excess substrate, or substrate binding specificity. Unlike, other esterases, both enzymes hydrolyse choline esters at very high speeds. Thus, in our work, the modified Elman’s method was used to investigate the anti-AChE and anti-BChE effects of curcuminoid chalcone.
as §2
The analysis was performed strictly as described by Studzińska-Sroka et al., except that the volume of the tested samples added to the reaction mixture was 0.035 mL.

[5] = target: BChE (Homo sapiens, UniProt P06276); format: biochemical; settings: samples 3 mM/dm^3 in DMSO, 0.035 mL; mean ± SEM, n = 3
[6] = Photostability in the solutions (RP-HPLC); format: physicochemical; settings: MeOH solution; for % Decomposition / Ct: 1.2 × 10^6 lux·h, 22 h; for ICH Classification: light
Description: However, as a result of the action of light, both compounds degraded completely (Table 6, Figure 12). The study was conducted in methanol solutions, irradiated in quartz cuvettes, and in solutions protected from light (aluminium foil). […] During irradiation, the temperature in the Suntest chamber was 35 °C. It was, therefore, concluded that both compounds are photolabile in solutions. […] The visible peaks with Rt values of 6.3 (Figure 12a,c) and 4.4 min (Figure 12b,d) were impurities of compounds 2 and 6, respectively.
Stock solutions of the test substances (2 or 6) were prepared by dissolving 1 mg of each test substance in 1.5 mL of a mixture of DMSO and MeOH (1:6, v/v). Then, 5 mL solutions of the tested compounds (c ~ 15 µg/mL) in MeOH were prepared. […] Each of the samples (protected and irradiated) was transferred to the chromatographic column. Samples before irradiation were also subjected to chromatographic analysis (t = 0) (Table 2).

[7] = Hydroxyl radical antioxidant capacity (HORAC); settings: samples 1 mg/mL DMSO; mean ± SEM, n = 3
[8] = Photostability in the solid state (IR spectra of KBr tablets); settings: for ICH Classification: light, solid phase; for Compatibility of the IR spectrum with the spectrum before irradiation: solid phase (KBr tablet)
[9] = protected from light (aluminium foil), 35 °C
[10] = not protected, 1.2 × 10^6 lux·h
[11] = not protected, 6.0 × 10^6 lux·h

Sequence of BChE (P06276 29-602, species assumed): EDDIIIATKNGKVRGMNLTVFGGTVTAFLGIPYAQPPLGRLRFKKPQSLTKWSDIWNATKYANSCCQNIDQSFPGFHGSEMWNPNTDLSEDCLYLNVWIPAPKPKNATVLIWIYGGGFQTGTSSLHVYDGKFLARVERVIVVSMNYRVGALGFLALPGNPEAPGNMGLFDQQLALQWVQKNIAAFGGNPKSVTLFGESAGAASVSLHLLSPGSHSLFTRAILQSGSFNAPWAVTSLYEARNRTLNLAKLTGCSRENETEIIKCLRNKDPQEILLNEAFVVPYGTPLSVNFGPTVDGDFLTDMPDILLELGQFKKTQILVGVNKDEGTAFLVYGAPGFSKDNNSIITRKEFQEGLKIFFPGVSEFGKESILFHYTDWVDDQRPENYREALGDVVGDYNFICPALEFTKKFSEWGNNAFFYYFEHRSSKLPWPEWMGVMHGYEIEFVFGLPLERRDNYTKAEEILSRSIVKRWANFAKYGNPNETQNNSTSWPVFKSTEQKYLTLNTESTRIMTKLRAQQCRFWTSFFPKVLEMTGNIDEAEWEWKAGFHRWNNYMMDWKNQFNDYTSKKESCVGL
Sequence of AChE (P22303 32-614): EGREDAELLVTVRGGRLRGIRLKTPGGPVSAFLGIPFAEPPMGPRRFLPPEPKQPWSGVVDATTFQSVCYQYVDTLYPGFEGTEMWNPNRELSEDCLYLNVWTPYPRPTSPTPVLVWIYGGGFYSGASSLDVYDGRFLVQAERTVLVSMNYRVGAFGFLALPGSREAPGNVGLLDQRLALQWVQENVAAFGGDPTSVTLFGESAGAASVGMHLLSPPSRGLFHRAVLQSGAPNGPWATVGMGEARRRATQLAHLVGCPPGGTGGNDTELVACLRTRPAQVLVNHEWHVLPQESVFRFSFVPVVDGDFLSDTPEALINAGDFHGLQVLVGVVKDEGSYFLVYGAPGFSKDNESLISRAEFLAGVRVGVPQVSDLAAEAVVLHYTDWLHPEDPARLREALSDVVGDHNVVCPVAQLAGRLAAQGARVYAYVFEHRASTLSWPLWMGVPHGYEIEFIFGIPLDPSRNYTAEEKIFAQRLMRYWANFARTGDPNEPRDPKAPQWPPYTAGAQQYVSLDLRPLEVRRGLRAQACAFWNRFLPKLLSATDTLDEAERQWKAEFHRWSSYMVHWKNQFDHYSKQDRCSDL

Compound	COX-2 Inhibition (%) [1]	GPx Inhibition (%) [2] [%]	GPx activity (NADPH consumption rate) [2] [nmol Depleted NADPH/min]	GR Inhibition (%) [3]	AChE % (inhibition) [4] [%]	AChE, Equivalent Concentration of Reference Compound Magniflorine [4] [µg/mL]	AChE, Equivalent Concentration of Reference Compound Rivastigmine [4] [µg/mL]	BChE % (inhibition) [5] [%]	BChE, Equivalent Concentration of Reference Compound Magniflorine [5] [µg/mL]	BChE, Equivalent Concentration of Reference Compound Rivastigmine [5] [µg/mL]	% Decomposition ([6]; not protected) [%]	Ct ([6]; not protected) [µg/mL]	% Decomposition [6, 9]	Ct [6, 9] [µg/mL]	ICH Classification [6]	HORAC, Gallic Acid Equivalents [7] [µg/mL]	ICH Classification [8]	Compatibility of the IR spectrum with the spectrum before irradiation [8, 10]	Compatibility of the IR spectrum with the spectrum before irradiation [8, 11]	Compatibility of the IR spectrum with the spectrum before irradiation ([8]; protected, 1.2 × 10^6 lux·h)	other results
COc1ccc(C=CC(=O)c2ccccc2)cc1OC(=O)C(C)c1ccc(CC(C)C)cc1 (stereo not shown) [Compound 6, 2-Methoxy-5-(3-oxo-3-phenylprop-1-en-1-yl)phenyl-2-(4-isobutylphenyl)-propionate]	-	17.4 ± 1.7	34.6 ± 3.3	did not inhibit and -	73.7 ± 5.1	0.28 ± 0.02	0.42 ± 0.03	77.3 ± 5.2	0.30 ± 0.02	0.22 ± 0.02	100	0	7.9%	13.8	Photolabile	20.4 ± 3.0	Photolabile	0.9962	0.9752	0.9997	Compatibility of the IR spectrum with the spectrum before irradiation ([8]; protected, 6.0 × 10^6 lux·h): 0.9993
COc1cc(C=CC(=O)c2ccccc2)ccc1OC(=O)C(C)c1ccc(CC(C)C)cc1 (stereo not shown) [Compound 2, 2-Methoxy-4-(3-oxo-3-phenylprop-1-en-1-yl)phenyl-2-(4-isobutylphenyl)-propionate]	-	17.0 ± 3.4	33.8 ± 6.8	27.1 ± 4.0%	90.5 ± 4.2	0.34 ± 0.02	0.52 ± 0.02	89.7 ± 4.8	0.35 ± 0.02	0.26 ± 0.01	100	0	68% and 68.2%	4.8	Photolabile	24.2 ± 2.3	Photolabile	0.9404	0.9017	0.9995	GR activity (NADPH consumption rate) [3]: 1018 ± 150 nmol Depleted NADPH/min; Compatibility of the IR spectrum with the spectrum before irradiation ([8]; protected, 6.0 × 10^6 lux·h): 0.9994
